The target of the assay is T1, rh-integrin α4β7/LPAM-1 (Homo sapiens, UniProt P13612+P26010).
T1 sequence (P13612 34-977 limits assumed): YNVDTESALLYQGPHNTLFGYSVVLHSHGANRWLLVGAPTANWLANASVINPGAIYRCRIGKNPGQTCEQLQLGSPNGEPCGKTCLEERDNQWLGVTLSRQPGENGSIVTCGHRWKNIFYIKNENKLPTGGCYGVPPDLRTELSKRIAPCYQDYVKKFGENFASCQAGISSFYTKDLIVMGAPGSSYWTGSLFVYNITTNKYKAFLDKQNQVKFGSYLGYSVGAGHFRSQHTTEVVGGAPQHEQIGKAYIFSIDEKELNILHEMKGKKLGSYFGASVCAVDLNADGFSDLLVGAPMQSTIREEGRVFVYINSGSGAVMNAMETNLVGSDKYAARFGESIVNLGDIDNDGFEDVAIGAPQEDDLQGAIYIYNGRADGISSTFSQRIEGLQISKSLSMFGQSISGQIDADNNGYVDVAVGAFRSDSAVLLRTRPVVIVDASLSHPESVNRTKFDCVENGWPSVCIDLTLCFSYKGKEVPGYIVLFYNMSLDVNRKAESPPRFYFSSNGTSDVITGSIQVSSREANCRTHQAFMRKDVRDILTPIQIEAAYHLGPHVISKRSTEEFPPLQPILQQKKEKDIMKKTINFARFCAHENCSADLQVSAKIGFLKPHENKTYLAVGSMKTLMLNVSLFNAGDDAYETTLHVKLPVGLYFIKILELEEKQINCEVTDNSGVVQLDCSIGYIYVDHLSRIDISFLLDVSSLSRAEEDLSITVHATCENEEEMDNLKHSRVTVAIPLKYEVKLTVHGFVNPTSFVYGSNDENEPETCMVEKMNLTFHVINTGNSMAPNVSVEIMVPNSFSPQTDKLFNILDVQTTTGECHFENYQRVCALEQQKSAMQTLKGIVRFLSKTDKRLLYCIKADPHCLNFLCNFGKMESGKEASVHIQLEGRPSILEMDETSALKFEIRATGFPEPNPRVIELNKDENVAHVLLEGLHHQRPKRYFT
T1 sequence (P26010 20-723 limits assumed): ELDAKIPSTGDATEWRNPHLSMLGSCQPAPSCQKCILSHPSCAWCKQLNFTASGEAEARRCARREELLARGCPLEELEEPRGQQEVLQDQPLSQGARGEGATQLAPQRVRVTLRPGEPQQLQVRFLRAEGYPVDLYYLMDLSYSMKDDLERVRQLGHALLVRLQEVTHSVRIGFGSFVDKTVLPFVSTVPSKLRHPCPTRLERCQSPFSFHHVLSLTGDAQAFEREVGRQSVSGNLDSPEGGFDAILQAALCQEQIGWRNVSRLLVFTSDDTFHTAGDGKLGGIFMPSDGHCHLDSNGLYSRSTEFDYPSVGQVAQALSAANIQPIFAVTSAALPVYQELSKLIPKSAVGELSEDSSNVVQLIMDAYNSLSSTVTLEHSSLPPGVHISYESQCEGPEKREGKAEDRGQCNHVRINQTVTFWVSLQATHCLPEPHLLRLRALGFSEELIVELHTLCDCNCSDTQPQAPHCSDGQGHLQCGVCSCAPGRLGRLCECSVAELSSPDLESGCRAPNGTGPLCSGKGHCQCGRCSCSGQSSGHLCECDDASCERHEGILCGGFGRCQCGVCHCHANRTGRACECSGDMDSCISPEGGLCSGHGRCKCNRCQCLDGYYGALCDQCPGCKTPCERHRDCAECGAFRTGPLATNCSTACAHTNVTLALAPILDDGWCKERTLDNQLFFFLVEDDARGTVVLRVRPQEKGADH
Description: α4β7-MadCAM Competition ELISA (Example 4). In kind it is binding. The conditions noted are these: 4 μg/mL α4β7 coated, MAdCAM and peptide mixture, 28° C. The method, then: After washing with wash buffer, 200 μL assay buffer was added to each well and incubated for one hour at 28° C. After another wash with wash buffer, 100 μL of a MAdCAM and peptide mixture in assay buffer was added to each well and incubated for one hour at 28° C., followed by washing with wash buffer.

Setting [1] is: competition ELISA, read-out: IC50.

Like-named read-outs stand apart in the source and are kept apart here. Numbered stars: 1 amine (or outer) side, 2 acyl side, 3 side chain; on linkers, the order of the positions; unused ones are H or OH. Bridge positions count the residues as written; N and C are the ends. Square brackets hold non-standard residues; d marks the D form. Peptide text beside a SMILES is read from it. X1 = O=C(C=NOCCCCCCOc1cc(C[*:2])cc(C[*:3])c1)[*:1]; X5 = O=C(CCCCCCOc1cc(C[*:2])cc(C[*:3])c1)[*:1]; tBuAla = CC(C)(C)C[C@H](N)C(=O)O; Met(O) = CS(=O)CC[C@H](N)C(=O)O; hSer = N[C@@H](CCO)C(=O)O; Nle = CCCC[C@H](N)C(=O)O

`CCCC[C@@H]1NC(=O)[C@H](CO)NC(=O)[C@H](CCCNC(=N)N)NC(=O)[C@@H]2CSCC(=O)N[C@@H](CCCNC(=N)N)C(=O)N[C@@H](CSSC[C@@H](C(=O)N[C@@H](Cc3c[nH]c4ccccc34)C(=O)N[C@@H](CCC(N)=O)C(N)=O)NC(=O)[C@H]([C@@H](C)CC)NC(=O)[C@H](CC(=O)O)NC1=O)C(=O)N[C@@H](CO)C(=O)N[C@@H](CCCC)C(=O)N[C@@H](CC(=O)O)C(=O)N[C@@H]([C@@H](C)CC)C(=O)N2` [SEQ ID NO: 76] ({CH2CO}-RCS[Nle]DICRS[Nle]DICWQ-NH2; disulfide 2-13; thioether N-7): under setting [1], the 50% inhibitory concentration (IC50) is 263 µM.
Still for that read-out and setting: for `CSCC[C@@H]1NC(=O)[C@H]([C@@H](C)O)NC(=O)[C@H](C)NC(=O)CNC(=O)[C@@H]2CSCc3cc(cc(c3)OCCCCCCON=CC(=O)N[C@@H](Cc3ccccc3)C(=O)N2)CSC[C@@H](C(=O)O)NC(=O)[C@H](CCCCN)NC(=O)[C@H](CCCCN)NC1=O` [SEQ ID NO: 79] (FCGATMKKC-OH; linker N-2-9 via X1) the value was 162 µM; for `CC[C@H](C)[C@@H]1NC(=O)[C@H](C)NC(=O)[C@H](CC[S+](C)[O-])NC(=O)[C@@H]2CCCN2C(=O)[C@@H]2CSCc3cc(cc(c3)OCCCCCCON=CC(=O)N[C@@H](CCC(N)=O)C(=O)N2)CSC[C@@H](C(=O)O)NC(=O)[C@H]([C@@H](C)O)NC(=O)[C@@H]2CCCN2C1=O` (some centres unmarked) [SEQ ID NO: 80] (QCP[Met(O)]AIPTC-OH; linker N-2-9 via X1), 152 µM.
With `C[C@@H](O)[C@@H]1NC(=O)[C@H](CC(=O)O)NC(=O)[C@@H]2CCCN2C(=O)[C@H](Cc2ccc(O)cc2)NC(=O)[C@@H]2CSCc3cc(cc(c3)OCCCCCCON=CC(=O)N[C@@H](CC(N)=O)C(=O)N2)CSC[C@@H](C(=O)O)NC(=O)[C@H](Cc2c[nH]cn2)NC(=O)[C@H](Cc2ccc(O)cc2)NC1=O` [SEQ ID NO: 86] (NCYPDTYHC-OH; linker N-2-9 via X1), the 50% inhibitory concentration (IC50) under setting [1] stood at 79.3 µM.
Still for that read-out and setting: for `COCC[C@@H]1NC(=O)[C@@H]2CCCN2C(=O)[C@@H]2CSCc3cc(cc(c3)OCCCCCCC(=O)NCC(=O)N[C@@H](CCC(N)=O)C(=O)N2)CSC[C@@H](C(=O)O)NC(=O)[C@H](CCC(=O)O)NC(=O)[C@H](CCC(N)=O)NC(=O)[C@@H]2CCCN2C(=O)[C@H](CC(C)(C)C)NC(=O)[C@H](CC(=O)O)NC1=O` [SEQ ID NO: 89] (GQCP[hSer](Me)D[tBuAla]PQEC-OH; linker N-3-11 via X5; C-terminus assumed) the value was 55.9 µM.
On the same count and under the same terms, the same measure for `CCCC[C@@H]1NC(=O)[C@H](CO)NC(=O)[C@@H]2CSSC[C@@H](C(=O)N[C@@H](Cc3c[nH]c4ccccc34)C(=O)N[C@@H](CCC(N)=O)C(N)=O)NC(=O)[C@H](C(C)C)NC(=O)[C@H](CC(=O)O)NC(=O)[C@H](CC(C)C)NC(=O)[C@H](CO)NC(=O)[C@H](CCCNC(=N)N)NC(=O)[C@H](CSCC(=O)N[C@@H](CCCNC(=N)N)C(=O)N2)NC(=O)[C@H]([C@@H](C)CC)NC(=O)[C@H](CC(=O)O)NC1=O` [SEQ ID NO: 94] ({CH2CO}-RCS[Nle]DICRSLDVCWQ-NH2; disulfide 2-13; thioether N-7): 19.7 µM.
Turning to `C[C@@H](O)[C@@H]1NC(=O)[C@H](CCCCN)NC(=O)[C@H](CO)NC(=O)[C@H](CCC(N)=O)NC(=O)[C@H](Cc2c[nH]c3ccccc23)NC(=O)[C@@H]2CCCN2C(=O)[C@@H]2CSCc3cc(cc(c3)OCCCCCCON=CC(=O)N[C@@H](CC(=O)O)C(=O)N2)CSC[C@@H](C(=O)O)NC1=O` [SEQ ID NO: 95] (DCPWQSKTC-OH; linker N-2-9 via X1), under “IC50, competition ELISA”, the half-inhibitory concentration (IC50) was 17.7 µM.
`CCCC[C@@H]1NC(=O)[C@H](CO)NC(=O)[C@H](CCCNC(=N)N)NC(=O)[C@@H]2CSCC(=O)N[C@@H](CCCNC(=N)N)C(=O)N[C@@H](CSSC[C@@H](C(=O)N[C@@H](Cc3c[nH]c4ccccc34)C(=O)N[C@@H](CCC(N)=O)C(N)=O)NC(=O)[C@H]([C@@H](C)CC)NC(=O)[C@H](CC(=O)O)NC1=O)C(=O)N[C@@H](CO)C(=O)N[C@@H](CC(=O)O)C(=O)N[C@@H]([C@@H](C)O)C(=O)N[C@@H](CC(C)C)C(=O)N2` [SEQ ID NO: 96] ({CH2CO}-RCSDTLCRS[Nle]DICWQ-NH2; disulfide 2-13; thioether N-7): the half-inhibitory concentration (IC50) under setting [1] turned out to be 15.9 µM.

(Values after US20230145835A1, “Modulators of Alpha-4-beta-7 Integrin and MAdCAM” (48HD Biopharma Inc., priority 2021, published 2023).)
